Legend:
[1] = tested on: alkaline phosphatase (ALP); conditions: 154-analog library, 10 μM, C2C12, duplicate
[2] = tested on: alkaline phosphatase (ALP); experiment: cells; conditions: Mus musculus, C2C12, 96 h

| SMILES | RFU Score (10 μM) [1] | activation at 10 µM [2] [%] |
| --- | --- | --- |
| Cc1cc(C)c2[nH]c(=O)c(CN3CCCC(CS(C)(=O)=O)C3)cc2c1 (stereo not drawn) [RU-0424457] | 285 | 0.13 |
| Cc1cc(C)c2[nH]c(=O)c(CN3CCCC(N4CCCC4=O)C3)cc2c1 (stereo not drawn) [RU-0424458] | 306 | 0.87 |
| Cc1cc(C)c2[nH]c(=O)c(CN(C)Cc3noc(C4CC4)n3)cc2c1 [RU-0424459] | 383 | 3.58 |
| O=C(c1[nH]cnc1-c1ccccc1)N1CCC(O)(CO)CC1 [RU-0424460] | 429 | 5.19 |
| Cc1cc(C)c2[nH]c(=O)c(-c3nccn3[C@@H]3CS(=O)(=O)C[C@H]3O)cc2c1 [RU-0424461] | 399 | 4.15 |
| Cc1cc(C)c2[nH]c(=O)c(C3CC(=O)NCc4nc5ccccn5c43)cc2c1 (stereo not drawn) [RU-0424462] | 503 | 7.81 |
| CC1(C2CCN(C(=O)c3[nH]cnc3-c3ccccc3)CC2)NC(=O)NC1=O (stereo not drawn) [RU-0424463] | 422 | 4.96 |
| CCCN(Cc1nccn1C)C(=O)c1[nH]cnc1-c1ccccc1 [RU-0424464] | 330 | 1.72 |
| Cc1cc(C)c2[nH]c(=O)c(-c3nccn3Cc3ccccn3)cc2c1 [RU-0424465] | 427 | 5.14 |
| Cn1cnnc1Sc1ccc(-c2[nH]cnc2-c2ccccc2)o1 [RU-0424466] | 527 | 8.64 |
| CO[C@H]1CN(C(=O)c2[nH]cnc2-c2ccccc2)CC[C@H]1N [RU-0424467] | 508 | 7.99 |
| COc1ncccc1-n1ccnc1-c1cc2cc(C)cc(C)c2[nH]c1=O [RU-0424468] | 508 | 7.97 |
| Cc1cc(C)c2[nH]c(=O)c(CN(C)Cc3cc(-c4cccnc4)no3)cc2c1 [RU-0424469] | 536 | 8.96 |
| O=C1OCC2(CCN(C(=O)c3[nH]cnc3-c3ccccc3)CC2)O1 [RU-0424470] | 497 | 7.58 |
| Cc1cc(C)c2[nH]c(=O)c(CN3CCCC4(C3)CN(C)C(=O)O4)cc2c1 (stereo not drawn) [RU-0424471] | 524 | 8.55 |
| COc1ccccc1N1CCN(C(=O)c2[nH]cnc2-c2ccccc2)CC1=O [RU-0424472] | 397 | 4.08 |
| CCNC(=O)[C@@H]1CCCN1Cc1cc2cc(C)cc(C)c2[nH]c1=O [RU-0424473] | 470 | 6.63 |
| Cc1cc(C)c2[nH]c(=O)c(C3c4nc[nH]c4CCN3Cc3ccco3)cc2c1 (stereo not drawn) [RU-0424474] | 566 | 10 |
| O=C(Nc1cnc2n1CCCC2)c1[nH]cnc1-c1ccccc1 [RU-0424475] | 491 | 6.39 |
| Cc1cc(C)c2[nH]c(=O)c(CN3C[C@H]4CC[C@@H](C3)N(C)C4=O)cc2c1 [RU-0424476] | 520 | 8.41 |
| CN(C)C1CCN(C(=O)c2cccc(-c3[nH]cnc3-c3ccccc3)c2)C1 (stereo not drawn) [RU-0424477] | 469 | 6.59 |
| CCC(C)Sc1ccc(-c2[nH]cnc2-c2ccccc2)cn1 (stereo not drawn) [RU-0424478] | 361 | 2.79 |

| SMILES | RFU Score (10 μM) [1] | activation at 10 µM [2] [%] |
| --- | --- | --- |
| CCN(CCN(C)C)C(=O)c1cccc(-c2[nH]cnc2-c2ccccc2)c1 [RU-0424479] | 525 | 8.57 |
| CC(C)(O)C#Cc1ccc(-c2[nH]cnc2-c2ccccc2)cc1 [RU-0424480] | 575 | 10.4 |
| O=C(O)Cc1cc(C2CCN(C(=O)c3[nH]cnc3-c3ccccc3)CC2)[nH]n1 [RU-0424481] | 526 | 8.62 |
| COc1cccc(-c2[nH]cnc2-c2ccccc2)c1OCCCn1ccnc1 [RU-0424482] | 567 | 10.1 |
| CO[C@@H]1CCOC[C@H]1NC(=O)c1[nH]cnc1-c1ccccc1 [RU-0424483] | 491 | 7.37 |
| Cc1nc(C2CCCN(C(=O)c3[nH]cnc3-c3ccccc3)C2)no1 (stereo not drawn) [RU-0424484] | 330 | 1.72 |
| CCc1cn[nH]c1C1CCN(C(=O)c2[nH]cnc2-c2ccccc2)CC1 [RU-0424485] | 515 | 8.24 |
| O=C(O)C1CN(C(=O)c2[nH]cnc2-c2ccccc2)CCN1 (stereo not drawn) [RU-0424486] | 438 | 5.51 |
| Cc1cc(C)c2[nH]c(=O)c(CN(Cc3cccnc3)C3CC3)cc2c1 [RU-0424487] | 501 | 7.72 |
| Cc1cc(C)c2[nH]c(=O)c(CN3CCc4[nH]cnc4C3C(=O)O)cc2c1 (stereo not drawn) [RU-0424488] | 462 | 6.37 |
| O=C(c1[nH]cnc1-c1ccccc1)N1CCC(Cc2cccnc2)CC1 [RU-0424489] | 551 | 9.48 |
| O=C(N[C@H]1CC[C@H]1NC1CCOCC1)c1[nH]cnc1-c1ccccc1 [RU-0424490] | 449 | 5.91 |
| Cc1cc(C)c2[nH]c(=O)c(CN3C[C@@H]4CCN(C)[C@@H]4C3)cc2c1 [RU-0424491] | 498 | 7.63 |
| Cc1cc(C)c2[nH]c(=O)c(-c3nccn3CCSc3cnn[nH]3)cc2c1 [RU-0424492] | 455 | 6.11 |
| CC1(C#N)CCN(C(=O)c2ccc(-c3[nH]cnc3-c3ccccc3)cc2)CC1 [RU-0424493] | 551 | 9.53 |
| COCC1(N(C)C(=O)c2ccc(-c3[nH]cnc3-c3ccccc3)cc2)CC1 [RU-0424494] | 501 | 7.74 |
| Cc1cc(C)c2[nH]c(=O)c(CN3[C@@H]4CC[C@H]3C[C@@H](O)C4)cc2c1 [RU-0424495] | 486 | 7.21 |
| Cc1ccnc(CC(C)N(C)Cc2cc3cc(C)cc(C)c3[nH]c2=O)c1 (stereo not drawn) [RU-0424496] | 516 | 8.27 |
| O=C(O)CNc1cc(-c2[nH]cnc2-c2ccccc2)c2cc[nH]c2n1 [RU-0424497] | 450 | 5.93 |
| Cc1cc(C)c2[nH]c(=O)c(CN(C)CCn3ccnc3C)cc2c1 [RU-0424498] | 486 | 7.21 |
| Cc1cc(C)c2[nH]c(=O)c(CN3CC(c4ccccn4)C3)cc2c1 [RU-0424499] | 498 | 7.62 |
| Cc1cc(C)c2[nH]c(=O)c(CN3CCC(O)(CN(C)C)C3)cc2c1 (stereo not drawn) [RU-0424500] | 523 | 8.52 |

| SMILES | RFU Score (10 μM) [1] | activation at 10 µM [2] [%] |
| --- | --- | --- |
| Cc1cc(C)c2[nH]c(=O)c(CN3C[C@H](O)C[C@H]3C(=O)O)cc2c1 [RU-0424501] | 487 | 7.25 |
| COCCCN1CCN(Cc2cc3cc(C)cc(C)c3[nH]c2=O)CC1 [RU-0424502] | 502 | 7.78 |
| CO[C@@H]1CC[C@@]2(OC)CCN(C(=O)c3[nH]cnc3-c3ccccc3)[C@H]2C1 [RU-0424503] | 436 | 5.45 |
| N#Cc1ccccc1-c1ccc(-c2[nH]cnc2-c2ccccc2)o1 [RU-0424504] | 309 | 0.96 |
| O=C(c1[nH]cnc1-c1ccccc1)N1CCc2onc(-c3cccc(F)c3)c2C1 [RU-0424505] | 326 | 1.56 |
| Cc1cc(C)c2[nH]c(=O)c(CN3CCCC(N(C)C)CC3)cc2c1 (stereo not drawn) [RU-0424506] | 364 | 2.9 |
| O=C(c1[nH]cnc1-c1ccccc1)N1CCC2(CCCO2)CC1 [RU-0424507] | 366 | 2.99 |
| Cc1cc(C)c2[nH]c(=O)c(CN(C)C(C)C(=O)N(C)C)cc2c1 (stereo not drawn) [RU-0424508] | 504 | 7.85 |
| Cc1cc(C)c2[nH]c(=O)c(CN(C)CCCn3cccn3)cc2c1 [RU-0424509] | 486 | 7.19 |
| Cc1cc(C)c2[nH]c(=O)c(CN(C)Cc3cnccn3)cc2c1 [RU-0424510] | 484 | 7.14 |
| Nc1nnc(C2CCN(C(=O)c3[nH]cnc3-c3ccccc3)CC2)[nH]1 [RU-0424511] | 467 | 6.54 |
| O=C(c1[nH]cnc1-c1ccccc1)N1CCOC(C(F)(F)F)C1 (stereo not drawn) [RU-0424512] | 455 | 6.12 |
| CO[C@@]12CC[C@H](O)C[C@@H]1N(C(=O)c1[nH]cnc1-c1ccccc1)CC2 [RU-0424513] | 435 | 5.42 |
| CCCn1cc(NC(=O)Cn2cc(-c3[nH]cnc3-c3ccccc3)cn2)nn1 [RU-0424514] | 386 | 3.69 |
| Cc1cc(C)c2[nH]c(=O)c(CN(C)CCc3cnn(C)c3)cc2c1 [RU-0424515] | 314 | 1.16 |
| O=C(c1[nH]cnc1-c1ccccc1)N1CCCC(c2ccncn2)C1 (stereo not drawn) [RU-0424516] | 392 | 3.89 |
| CNC(=O)[C@@H]1C[C@H](N)CN1Cc1cc2cc(C)cc(C)c2[nH]c1=O [RU-0424517] | 527 | 8.64 |
| Cc1cc(C)c2[nH]c(=O)c(-c3nccn3Cc3ccco3)cc2c1 [RU-0424518] | 484 | 7.14 |
| O=C(NCc1nc(-c2cnccn2)n[nH]1)c1[nH]cnc1-c1ccccc1 [RU-0424519] | 561 | 9.84 |
| CNC(=O)CC1C(=O)NCCN1Cc1cc2cc(C)cc(C)c2[nH]c1=O (stereo not drawn) [RU-0424520] | 532 | 8.81 |
| Cc1noc(C(C)N(C)C(=O)c2[nH]cnc2-c2ccccc2)n1 (stereo not drawn) [RU-0424521] | 604 | 11.3 |
| CO[C@H]1CC[C@@]2(OC)CCN(C(=O)c3[nH]cnc3-c3ccccc3)[C@H]2C1 [RU-0424522] | 458 | 6.21 |

— patent US11478466B2, “Small molecule promoting osteoblast differentiation” (Cornell University, priority 2019, dated 2022)
